The IC50 is the concentration needed to halve the response being measured. A higher IC50 goes with weaker potency in that assay.

The results in this text go back to ChEMBL document CHEMBL1145262, “Aryl sulfones: a new class of gamma-secretase inhibitors” (Bioorg Med Chem Lett, 2005).

This assay has as its target Gamma-secretase. Briefly: In vitro inhibition of gamma-secretase as amyloid peptide production in SH-SY5Y cells. It counts as functional, cell-based, Homo sapiens.
Molecule `CC(CO)C(c1cc(F)ccc1F)S(=O)(=O)c1ccc(Cl)cc1` (centres undefined) yielded a half-inhibitory concentration (IC50) of 304 nM. This counts as sub-micromolar.
For `O=S(=O)(c1ccc(Cl)cc1)C1(c2ccccc2F)CCCCC1`, half-maximal inhibition (IC50) required 55 nM.
To `O=S(=O)(c1ccc(Cl)cc1)C1(c2cc(F)ccc2F)CCCCC1` belongs 3 nM; to `COC(=O)C1CC(c2cc(F)ccc2F)(S(=O)(=O)c2ccc(Cl)cc2)CCC1=O` (centres undefined), 104 nM; to `C[C@H](CO)N(c1cc(F)ccc1F)S(=O)(=O)c1ccc(Cl)cc1`, 27 nM.
`CC(C)C(c1cc(F)ccc1F)S(=O)(=O)c1ccc(Cl)cc1` (centres undefined) came in with an IC50 of 70 nM. Compared with the last molecule, the IC50 is about 2.6-fold higher.
In turn, `CN(c1cc(F)ccc1F)S(=O)(=O)c1ccc(Cl)cc1` registered an IC50 of 1900 nM. Compared with the last molecule, the IC50 is about 27-fold higher.
With `COC(=O)C(C)C(c1cc(F)ccc1F)S(=O)(=O)c1ccc(Cl)cc1` (centres undefined), half-maximal inhibition (IC50) was put at 253 nM.
To `O=S(=O)(c1ccc(Cl)cc1)C1(c2ccccc2)CCCCC1` belongs 461 nM.
In the case of `O=S(=O)(Cc1cc(F)ccc1F)c1ccc(Cl)cc1` it was 4410 nM; in that of `CC(c1cc(F)ccc1F)S(=O)(=O)c1ccc(Cl)cc1` (centres undefined), 2470 nM.
As to `O=S(=O)(c1ccc(Cl)cc1)C1(c2cccc(F)c2)CCCCC1`, half-maximal inhibition (IC50) required 249 nM.
Molecule `O=S(=O)(Nc1cc(F)ccc1F)c1ccc(Cl)cc1` came in with an IC50 of over 10000 nM.
In the case of `O=S(=O)(c1ccccc1)C1(c2cc(F)ccc2F)CCCCC1` it was 98 nM.
In the case of `CC(C)N(c1cc(F)ccc1F)S(=O)(=O)c1ccc(Cl)cc1` it was 170 nM.
To `CC(CCO)C(c1cc(F)ccc1F)S(=O)(=O)c1ccc(Cl)cc1` (centres undefined) belongs 35 nM; to `O=S(=O)(c1ccc(Cl)cc1)C1(c2cc(F)ccc2F)CC2CCC(C2)C1` (stereo in doubt; 20), 94 nM.
As to `O=S(=O)(c1ccc(Cl)cc1)C1(c2cc(F)ccc2F)CC2CCC(C2)C1` (stereo in doubt; 19), the IC50 worked out at 12 nM.
To `O=C1CCC(c2cc(F)ccc2F)(S(=O)(=O)c2ccc(Cl)cc2)CC1` belongs 22 nM.
